Where no end group is shown, it is not given here.
System: β-pancreatic cells
Test: Electrical signals (action potentials) of β-pancreatic cells in culture on the microelectrode sensor of FIG. 1
Assay type: cell-based
Procedure: In the example embodiment shown in FIG. 1, the sensor 2 includes a set of 60 microelectrodes distributed over 1 mm^2. The microelectrodes 21 have a disk shape 10 μm in diameter. The sensor 2 also includes β-pancreatic cells 23 in culture on the set of 60 microelectrodes 21. Laboratory tests have been conducted on the sensor 2 of FIG. 1. The first line of FIG. 2 specifies the times at which glucose is present at 20 mM, i.e. from 0 to 50 min. The second line specifies the times at which diazoxide is present at 200 μM, i.e. from around 13 to 16 min and around 27 to 35 min. […] An action potential waveform is visible at the dotted vertical line. The first line of FIG. 4 specifies the time at which the β-pancreatic cells 23 of the sensor 2 are placed in contact with the incretin hormone GLP-1, shown by a vertical arrow.

| Molecule | reversibility of the diazoxide effect on electrical activation (FIG. 2, after removal of diazoxide, glucose 20 mM alone) | physiological activity (action potentials) of the β-pancreatic cells of the sensor in the presence of diazoxide (FIG. 2, diazoxide 200 μM (around 13 to 16 min and 27 to 35 min) with glucose 20 mM) | time after GLP-1 injection until electrical activation increases (FIG. 4) | electrical activation (action potentials) of the β-pancreatic cells after GLP-1 (FIG. 4, after injection of the incretin hormone GLP-1) |
| --- | --- | --- | --- | --- |
| CC1=NS(=O)(=O)c2cc(Cl)ccc2N1 [diazoxide] | not definitive | basal physiological activity |  |  |
| GLP-1: incretin hormone, a physiological amplifier of the glucose response (HAEGTFTSDVSSYLEGQAAKEFIAWLVKGR; ends and bridges not checked; UniProt P01275 98-127, looked up) |  |  | twenty | increases significantly |

Reference: patent US9962113B2, “Sensor for measuring the activity of beta-pancreatic cells or of islets of langerhans, manufacture and use of such a sensor” (UNIVERSITE DE BORDEAUX 1, priority 2010, dated 2018)
